# In patent US6964949B2, “Pharmaceutical compositions for promoting the growth of gram-positive bacilli and increasing the acidity in the vagina and the use thereof” (Shanghai Jiao Da Onlly Co., Ltd., priority 2000, dated 2005):
# How the values were obtained:
# Format in all cases: cell-based
# Settings in all cases: 1.0% yeast extract, pH 6.2, candle jar, 37° C.
# [1] = system: vaginal secretion specimen of a patient suffering from typical bacterial vaginosis; test: Experiment Example 2: pH of culture samples (production of acids)
# Text: (§1) • (1)The preparation of the compositions: Different saccharides were used respectively to prepare the following compositions according to the methods mentioned above: glucose, fructose, galactose, mannose, maltose, sucrose, lactose, lactulose, mycose, cellobiose, melibiose, melitose, malto-oligosaccharide, isomaltooligosaccharide and fructooligosaccharide, dextrin, starch, and glycogen: • A. 5% glucose, 1.0% yeast extract, 1.6% xanthan gum, pH adjusted to 6.2; • B. 5% fructose, 1.0% yeast extract, 1.6% xanthan gum, pH adjusted to 6.2; • C. 5% galactose, 1.0% yeast extract, 1.6% xanthan gum, pH adjusted to 6.2; • D. 5% mannose, 1.0% yeast extract, 1.6% xanthan gum, pH adjusted to 6.2; • E. 10.0% maltose, 1.0% yeast extract, 1.6% xanthan gum, pH adjusted to 6.2; • F. 10.0% sucrose, 1.0% yeast extract, 1.6% xanthan gum, pH adjusted to 6.2; • G. 10.0% lactose, 1.0% yeast extract, 1.6% xanthan gum, pH adjusted to 6.2; • H. 10.0% lactulose, 1.0% yeast extract, 1.6% xanthan gum, pH adjusted to 6.2; • I. 10.0% cellobiose, 1.0% yeast extract, 1.6% xanthan gum, pH adjusted to 6.2; • J. 10.0% mycose, 1.0% yeast extract, 1.6% xanthan gum, pH adjusted to 6.2; • K. 10.0% melibiose, 1.0% yeast extract, 1.6% xanthan gum, pH adjusted to 6.2; • L. 10.0% melitose, 1.0% yeast extract, 1.6% xanthan gum, pH adjusted to 6.2; • M. 10.0% maltooligosaccharide, 1.0% yeast extract, 1.6% xanthan gum, pH adjusted to 6.2; • N. 10.0% isomaltooligosaccharide, 1.0% yeast extract, 1.6% xanthan gum, pH adjusted to 6.2; • O. 10.0% fructooligosaccharide, 1.0% yeast extract, 1.6% xanthan gum, pH adjusted to 6.2; • P. 10.0% dextrin, 1.0% yeast extract, 0.5% xanthan gum, pH adjusted to 6.2; • Q. 10.0% starch, 1.0% yeast extract, pH adjusted to 6.2; • R. 10.0% glycogen, 1.0% yeast extract, 1.6% xanthan gum, pH adjusted to 6.2. • (2)The preparation of the test tubes: The compositions prepared above were filled into test tubes, with each tube containing 5 ml, sterilized, and kept until use for experiment. • (3) Specimen suspension: Vaginal secretion was taken from one of the patients suffering from typical bacterial vagmosis with a cotton swab, then the swab was washed in 2 ml sterilized Trypcase-soy Broth immediately, and thus the specimen suspension was ready. […] Then the tubes were placed in a candle jar and cultivated at 37° C. After 24 hours and 48 hours' culture, culture samples were taken respectively from each of the tubes, then the Gram smears of the samples were observed and the pH values of culture samples were tested. […] Meanwhile the pH values in most of the composition tubes decreased to different levels. […] And maltose and sucrose exert better effect in promoting the growth of Gram-positive bacilli and the production of acids than that of the other kinds of oligosaccharides.
# Gram-positive cocci = test: Experiment Example 2: comparison of saccharides, specimen culture, Gram smear
# Text: as §1
# Gram-negative bacilli = test: as above
# Text: as §1
# Gram-positive bacilli = test: as above
# Text: as §1
# Gram-negative cocci = test: as above
# Text: as §1
# [2] = 10.0% saccharide, 1.6% xanthan gum (dextrin 0.5%, starch none)
# [3] = 5% saccharide, 1.6% xanthan gum
SMILES,"pH, 24 hours-culture [1, 2]","pH, 48 hours-culture [1, 2]","Bacteria G + c (Gram-positive cocci), 24 hours-culture (Gram-positive cocci; [2])","Bacteria G + c (Gram-positive cocci), 48 hours-culture (Gram-positive cocci; [2])","Bacteria G − b (Gram-negative bacilli), 24 hours-culture (Gram-negative bacilli; [2])","Bacteria G − b (Gram-negative bacilli), 48 hours-culture (Gram-negative bacilli; [2])","Bacteria G + b (Gram-positive bacilli), 24 hours-culture (Gram-positive bacilli; [2])","Bacteria G + b (Gram-positive bacilli), 48 hours-culture (Gram-positive bacilli; [2])","Bacteria G − c (Gram-negative cocci), 24 hours-culture (Gram-negative cocci; [2])","Bacteria G − c (Gram-negative cocci), 48 hours-culture (Gram-negative cocci; [2])","pH, 24 hours-culture [1, 3]","pH, 48 hours-culture [1, 3]","Bacteria G + c (Gram-positive cocci), 24 hours-culture (Gram-positive cocci; [3])","Bacteria G + c (Gram-positive cocci), 48 hours-culture (Gram-positive cocci; [3])","Bacteria G − b (Gram-negative bacilli), 24 hours-culture (Gram-negative bacilli; [3])","Bacteria G − b (Gram-negative bacilli), 48 hours-culture (Gram-negative bacilli; [3])","Bacteria G + b (Gram-positive bacilli), 24 hours-culture (Gram-positive bacilli; [3])","Bacteria G + b (Gram-positive bacilli), 48 hours-culture (Gram-positive bacilli; [3])","Bacteria G − c (Gram-negative cocci), 24 hours-culture (Gram-negative cocci; [3])","Bacteria G − c (Gram-negative cocci), 48 hours-culture (Gram-negative cocci; [3])"
"OC[C@H]1O[C@@H](O[C@@H]2[C@@H](CO)OC(O)(CO)[C@H]2O)[C@H](O)[C@@H](O)[C@H]1O (mixture of isomers) [Lactulose, lactulose]",5.8-6.2,6.2,"G + c, + (1-9 bacteria per field of vision under oil-immersion lens)","G + c, + (1-9 bacteria per field of vision under oil-immersion lens)","G − b, + (1-9 bacteria per field of vision under oil-immersion lens)","G − b, + (1-9 bacteria per field of vision under oil-immersion lens)","G + b, +++ (About 100 bacteria or more per field vision under oil-immersion lens, even uncountable)","G + b, ++ (About 10-99 bacteria per field of vision under oil-immersion lens)","G − c, − (No or less than one bacterium per field of version under oil-immersion lens)","G − c, − (No or less than one bacterium per field of version under oil-immersion lens)",–,–,–,–,–,–,–,–,–,–
"O=C[C@H](O)[C@@H](O)[C@H](O[C@@H]1O[C@H](CO)[C@@H](O)[C@H](O)[C@H]1O)[C@H](O)CO [Cellobiose, cellobiose]",5.8,5.8,"G + c, + (1-9 bacteria per field of vision under oil-immersion lens)","G + c, + (1-9 bacteria per field of vision under oil-immersion lens)","G − b, + (1-9 bacteria per field of vision under oil-immersion lens)","G − b, + (1-9 bacteria per field of vision under oil-immersion lens)","G + b, ++ (About 10-99 bacteria per field of vision under oil-immersion lens)","G + b, ++ (About 10-99 bacteria per field of vision under oil-immersion lens)","G − c, − (No or less than one bacterium per field of version under oil-immersion lens)","G − c, − (No or less than one bacterium per field of version under oil-immersion lens)",–,–,–,–,–,–,–,–,–,–
"O=C(CO)[C@@H](O)[C@H](O)[C@H](O)CO [Fructose, fructose]",–,–,–,–,–,–,–,–,–,–,5.4-5.8,5.4-5.8,"G + c, + (1-9 bacteria per field of vision under oil-immersion lens)","G + c, + (1-9 bacteria per field of vision under oil-immersion lens)","G − b, + (1-9 bacteria per field of vision under oil-immersion lens)","G − b, + (1-9 bacteria per field of vision under oil-immersion lens)","G + b, ++ (About 10-99 bacteria per field of vision under oil-immersion lens)","G + b, +++ (About 100 bacteria or more per field vision under oil-immersion lens, even uncountable)","G − c, − (No or less than one bacterium per field of version under oil-immersion lens)","G − c, − (No or less than one bacterium per field of version under oil-immersion lens)"
"O=C[C@H](O)[C@@H](O)[C@@H](O)[C@H](O)CO [Galactose, galactose]",–,–,–,–,–,–,–,–,–,–,6.7,6.7,"G + c, ++ (About 10-99 bacteria per field of vision under oil-immersion lens)","G + c, ++ (About 10-99 bacteria per field of vision under oil-immersion lens)","G − b, − (No or less than one bacterium per field of version under oil-immersion lens)","G − b, + (1-9 bacteria per field of vision under oil-immersion lens)","G + b, ++ (About 10-99 bacteria per field of vision under oil-immersion lens)","G + b, + (1-9 bacteria per field of vision under oil-immersion lens)","G − c, − (No or less than one bacterium per field of version under oil-immersion lens)","G − c, − (No or less than one bacterium per field of version under oil-immersion lens)"
"OC[C@H]1O[C@@H](O[C@H]2[C@H](O)[C@@H](O)C(O)O[C@@H]2CO)[C@H](O)[C@@H](O)[C@H]1O (stereo partly shown) [Lactose, lactose]",5.8,5.1-5.4,"G + c, +++ (About 100 bacteria or more per field vision under oil-immersion lens, even uncountable)","G + c, + (1-9 bacteria per field of vision under oil-immersion lens)","G − b, + (1-9 bacteria per field of vision under oil-immersion lens)","G − b, + (1-9 bacteria per field of vision under oil-immersion lens)","G + b, ++ (About 10-99 bacteria per field of vision under oil-immersion lens)","G + b, ++ (About 10-99 bacteria per field of vision under oil-immersion lens)","G − c, − (No or less than one bacterium per field of version under oil-immersion lens)","G − c, − (No or less than one bacterium per field of version under oil-immersion lens)",–,–,–,–,–,–,–,–,–,–
"OC[C@H]1O[C@H](OCC2O[C@@H](O)[C@H](O)[C@@H](O)[C@@H]2O)[C@H](O)[C@@H](O)[C@H]1O (stereo partly shown) [Melibiose, melibiose]",6.2,5.8,"G + c, + (1-9 bacteria per field of vision under oil-immersion lens)","G + c, + (1-9 bacteria per field of vision under oil-immersion lens)","G − b, ++ (About 10-99 bacteria per field of vision under oil-immersion lens)","G − b, ++ (About 10-99 bacteria per field of vision under oil-immersion lens)","G + b, + (1-9 bacteria per field of vision under oil-immersion lens)","G + b, ++ (About 10-99 bacteria per field of vision under oil-immersion lens)","G − c, + (1-9 bacteria per field of vision under oil-immersion lens)","G − c, − (No or less than one bacterium per field of version under oil-immersion lens)",–,–,–,–,–,–,–,–,–,–
"OC[C@H]1O[C@H](OC[C@H]2O[C@H](O[C@]3(CO)O[C@H](CO)[C@@H](O)[C@@H]3O)[C@H](O)[C@@H](O)[C@@H]2O)[C@H](O)[C@@H](O)[C@H]1O [Melitose, melitose]",6.7,5.8,"G + c, + (1-9 bacteria per field of vision under oil-immersion lens)","G + c, + (1-9 bacteria per field of vision under oil-immersion lens)","G − b, + (1-9 bacteria per field of vision under oil-immersion lens)","G − b, ++ (About 10-99 bacteria per field of vision under oil-immersion lens)","G + b, ++ (About 10-99 bacteria per field of vision under oil-immersion lens)","G + b, +++ (About 100 bacteria or more per field vision under oil-immersion lens, even uncountable)","G − c, + (1-9 bacteria per field of vision under oil-immersion lens)","G − c, − (No or less than one bacterium per field of version under oil-immersion lens)",–,–,–,–,–,–,–,–,–,–
